Results from ChEMBL document CHEMBL1136587, “Optimisation of aryl substitution leading to potent methionyl tRNA synthetase inhibitors with excellent gram-positive antibacterial activity” (Bioorg Med Chem Lett, 2003).
Values after ≈ are worked out from the molar mass of the structure shown.

Tests used:
Enterococcus faecalis = assay: In vitro Antibacterial activity of compound against Enterococcus faecalis 1; assay type: functional
Staphylococcus aureus [1] = assay: In vitro Antibacterial activity of compound against Staphylococcus aureus Oxford; assay type: functional
[2] = target: Methionine--tRNA ligase (Enterococcus faecalis (strain ATCC 700802 / V583)) (UniProt Q837B3); assay: In vitro Antibacterial activity of compound against Enterococcus faecalis 7; assay type: functional
Chain of Methionine--tRNA ligase (Enterococcus faecalis (strain ATCC 700802 / V583)) (Q837B3 whole entry): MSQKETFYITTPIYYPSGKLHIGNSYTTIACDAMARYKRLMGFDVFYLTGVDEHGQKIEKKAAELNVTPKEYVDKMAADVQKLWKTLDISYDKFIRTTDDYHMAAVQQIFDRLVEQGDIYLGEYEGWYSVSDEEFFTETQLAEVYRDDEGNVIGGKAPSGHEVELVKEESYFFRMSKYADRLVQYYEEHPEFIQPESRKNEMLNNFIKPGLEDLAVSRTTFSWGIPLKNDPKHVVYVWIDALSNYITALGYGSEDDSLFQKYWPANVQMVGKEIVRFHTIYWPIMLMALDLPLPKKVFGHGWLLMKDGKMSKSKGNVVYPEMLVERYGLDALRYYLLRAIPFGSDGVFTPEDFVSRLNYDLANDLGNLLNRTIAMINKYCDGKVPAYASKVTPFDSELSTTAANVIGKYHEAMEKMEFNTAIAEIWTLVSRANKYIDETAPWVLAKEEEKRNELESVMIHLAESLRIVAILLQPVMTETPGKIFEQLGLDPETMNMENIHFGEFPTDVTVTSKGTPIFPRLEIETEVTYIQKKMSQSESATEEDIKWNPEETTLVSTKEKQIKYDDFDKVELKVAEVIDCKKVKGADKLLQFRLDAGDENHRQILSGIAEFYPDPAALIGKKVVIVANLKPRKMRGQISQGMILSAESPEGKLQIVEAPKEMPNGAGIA

[3] = target: Methionine--tRNA ligase (Enterococcus faecalis (strain ATCC 700802 / V583)) (UniProt Q837B3); assay: In vitro Antibacterial activity of compound against Enterococcus faecalis; assay type: functional
Enterococcus faecium = assay: In vitro Antibacterial activity of compound against Enterococcus faecium
Staphylococcus aureus [4] = assay: In vitro Antibacterial activity of compound against Staphylococcus aureus
[5] = system: Staphylococcus epidermidis; assay: In vitro Antibacterial activity of compound against Staphylococcus epidermidis

MIC (Enterococcus faecalis) [µg/mL] | MIC (Staphylococcus aureus [1]) [µg/mL] | Compound | other results
< 0.06 | 0.13 (≈ 0.271 µM) | Nc1c(Br)cc(Br)cc1CNCCCNc1cc(O)c2ccccc2n1 | –
< 0.06 | 0.13 (≈ 0.293 µM) | CCOc1c(C)cc(Br)cc1CNCCCNc1cc(O)c2ccccc2n1 | –
4 (≈ 10.2 µM) | 8 (≈ 20.5 µM) | CCOc1c(C)cc(C#N)cc1CNCCCNc1cc(O)c2ccccc2n1 | –
< 0.06 | < 0.06 | O=c1cc(NCCCNC2CCOc3c(Br)cc(Br)cc32)[nH]c2ccccc12 (centres undefined) | –
2 (≈ 4.34 µM) | 4 (≈ 8.69 µM) | CCOc1c(CNCCCNc2cc(O)c3ccccc3n2)cc(Br)cc1OC | –
0.125 (≈ 0.309 µM) | 2 (≈ 4.95 µM) | Oc1cc(NCCCNC2COc3c(Cl)cc(Cl)cc32)nc2ccccc12 (centres undefined) | –
< 0.06 | < 0.06 | CCOc1c(C)cc(I)cc1CNCCCNc1cc(O)c2ccccc2n1 | –
– | 8 (≈ 21.3 µM) | Oc1cc(NCCCNCc2cccc(Cl)c2Cl)nc2ccccc12 | MIC [2]: 2 µg/mL (≈ 5.32 µM)
< 0.06 | 0.13 (≈ 0.309 µM) | CCOc1c(Cl)cc(Cl)cc1CNCCCNc1cc(O)c2ccccc2n1 | MIC90 [3]: 0.06 µg/mL (≈ 0.143 µM); MIC90 (Enterococcus faecium): < 0.016 µg/mL; MIC90 (Staphylococcus aureus [4]): 2 µg/mL (≈ 4.76 µM); MIC90 [5]: 2 µg/mL (≈ 4.76 µM)
> 64 | > 64 | Oc1cc(NCCCNCc2ccccc2)nc2ccccc12 | –
< 0.06 | 0.13 (≈ 0.311 µM) | Oc1cc(NCCCNC2CCNc3c(Cl)cc(Cl)cc32)nc2ccccc12 (centres undefined) | –
– | 4 (≈ 10.6 µM) | Oc1cc(NCCCNCc2ccc(Cl)cc2Cl)nc2ccccc12 | MIC [2]: 4 µg/mL (≈ 10.6 µM)
0.25 (≈ 0.563 µM) | 2 (≈ 4.5 µM) | CCOc1c(Br)cc(C)cc1CNCCCNc1cc(O)c2ccccc2n1 | –
< 0.06 | < 0.06 | CCOc1c(Br)cc(Br)cc1CNCCCNc1cc(O)c2ccccc2n1 | –
< 0.06 | 0.25 (≈ 0.621 µM) | Oc1cc(NCCCNC2CCc3c(Cl)cc(Cl)cc32)nc2ccccc12 (centres undefined) | –
< 0.06 | < 0.06 | Oc1cc(NCCCNC2CCNc3c(Br)cc(Cl)cc32)nc2ccccc12 (centres undefined) | MIC90 [3]: 0.06 µg/mL (≈ 0.13 µM); MIC90 (Enterococcus faecium): < 0.016 µg/mL; MIC90 (Staphylococcus aureus [4]): 1 µg/mL (≈ 2.17 µM); MIC90 [5]: 1 µg/mL (≈ 2.17 µM)

MIC (Enterococcus faecalis) [µg/mL] | MIC (Staphylococcus aureus [1]) [µg/mL] | Compound | other results
4 (≈ 8.43 µM) | 8 (≈ 16.9 µM) | CCOc1cc(Br)c(OCC)c(CNCCCNc2cc(O)c3ccccc3n2)c1 | –
< 0.06 | < 0.06 | CCOc1c(I)cc(Br)cc1CNCCCNc1cc(O)c2ccccc2n1 | –
1 (≈ 2.2 µM) | 4 (≈ 8.78 µM) | CCOc1c(Br)cc(C#N)cc1CNCCCNc1cc(O)c2ccccc2n1 | –
32 (≈ 63.1 µM) | 32 (≈ 63.1 µM) | CCOc1c(CO)cc(I)cc1CNCCCNc1cc(O)c2ccccc2n1 | –
< 0.06 | 0.25 (≈ 0.444 µM) | Oc1cc(NCCCNCc2cc(Br)cc(Br)c2OCC(F)(F)F)nc2ccccc12 | –
< 0.06 | 0.13 (≈ 0.311 µM) | O=c1cc(NCCCNC2CCOc3c(Cl)cc(Cl)cc32)[nH]c2ccccc12 (centres undefined) | –
> 64 | > 64 | O=C(NCCCNc1cc(O)c2ccccc2n1)c1ccc(Cl)c(Cl)c1 | –
16 (≈ 42.5 µM) | 4 (≈ 10.6 µM) | Oc1cc(NCCCNCc2cc(Cl)ccc2Cl)nc2ccccc12 | –
8 (≈ 15 µM) | 32 (≈ 60 µM) | CCOc1c(CNCCCNc2cc(=O)c3ccccc3[nH]2)cc(I)cc1C(C)(C)C | –
< 0.06 | 0.25 (≈ 0.625 µM) | CCOc1c(C)cc(Cl)cc1CNCCCNc1cc(O)c2ccccc2n1 | –
0.13 (≈ 0.263 µM) | 0.5 (≈ 1.01 µM) | CNc1c(Br)cc(Br)cc1CNCCCNc1cc(O)c2ccccc2n1 | –
< 0.06 | 0.13 (≈ 0.255 µM) | Oc1cc(NCCCNC2CCOc3c(Cl)cc(I)cc32)nc2ccccc12 (centres undefined) | –
< 0.06 | < 0.06 | Oc1cc(NCCCNCc2cc(I)cc(I)c2)nc2ccccc12 | –
< 0.06 | 0.25 (≈ 0.6 µM) | Oc1cc(NCCCNC2CCCc3c(Cl)cc(Cl)cc32)nc2ccccc12 (centres undefined) | –
< 0.06 | < 0.06 | CCOc1c(I)cc(I)cc1CNCCCNc1cc(O)c2ccccc2n1 | –
0.25 (≈ 0.577 µM) | 0.5 (≈ 1.15 µM) | CCOc1c(C)cc(C(F)(F)F)cc1CNCCCNc1cc(=O)c2ccccc2[nH]1 | –

Compound | MIC (Enterococcus faecalis) [µg/mL] | MIC (Staphylococcus aureus [1]) [µg/mL] | other results
O=c1cc(NCCCNCc2ccc(Cl)c(Cl)c2)[nH]c2ccccc12 | 2 (≈ 5.32 µM) | 4 (≈ 10.6 µM) | –
